In article PMC10897196, “Structure–activity characteristics of phenylalanine analogs selectively transported by L-type amino acid transporter 1 (LAT1)” (Scientific Reports, 2024):

Key:
human LAT2 = molecular target: T1, human LAT2 (Homo sapiens, UniProt Q9UHI5); experiment: Efflux of pre-loaded L-[14C]alanine from HEK293-hLAT2 cells induced by extracellular compounds; format: cell-based; conditions: 1 min
T1 construct: expressed in transfected cells
T1 sequence (Q9UHI5 1-535): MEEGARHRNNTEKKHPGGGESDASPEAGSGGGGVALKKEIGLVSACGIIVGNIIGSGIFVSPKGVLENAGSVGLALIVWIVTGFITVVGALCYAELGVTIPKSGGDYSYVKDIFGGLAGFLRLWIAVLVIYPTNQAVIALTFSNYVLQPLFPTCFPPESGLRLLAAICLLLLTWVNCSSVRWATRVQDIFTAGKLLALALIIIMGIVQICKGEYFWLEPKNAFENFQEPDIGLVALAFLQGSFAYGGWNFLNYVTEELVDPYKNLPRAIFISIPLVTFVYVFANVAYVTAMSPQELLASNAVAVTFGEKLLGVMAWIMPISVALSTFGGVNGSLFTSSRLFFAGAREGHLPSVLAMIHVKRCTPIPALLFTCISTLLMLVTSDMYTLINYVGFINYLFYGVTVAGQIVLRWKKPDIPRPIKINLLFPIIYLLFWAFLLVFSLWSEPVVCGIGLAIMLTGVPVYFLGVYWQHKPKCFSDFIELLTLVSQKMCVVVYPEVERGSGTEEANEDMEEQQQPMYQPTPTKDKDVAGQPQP
T1 sequence (P08195 1-529 partner): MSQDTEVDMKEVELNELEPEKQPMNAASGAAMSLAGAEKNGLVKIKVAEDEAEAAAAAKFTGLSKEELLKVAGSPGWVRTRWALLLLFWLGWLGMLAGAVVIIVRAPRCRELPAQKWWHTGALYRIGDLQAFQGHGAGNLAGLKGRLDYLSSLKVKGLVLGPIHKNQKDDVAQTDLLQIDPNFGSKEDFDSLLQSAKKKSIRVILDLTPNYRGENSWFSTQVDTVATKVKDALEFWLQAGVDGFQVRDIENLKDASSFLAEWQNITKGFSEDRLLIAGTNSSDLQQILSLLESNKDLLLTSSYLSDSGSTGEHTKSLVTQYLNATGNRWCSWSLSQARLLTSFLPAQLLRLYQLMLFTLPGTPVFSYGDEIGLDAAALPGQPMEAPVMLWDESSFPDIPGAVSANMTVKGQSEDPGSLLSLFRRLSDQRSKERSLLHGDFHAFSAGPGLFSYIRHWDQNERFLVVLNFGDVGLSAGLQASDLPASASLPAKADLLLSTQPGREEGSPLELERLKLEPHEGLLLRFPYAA
Procedure: We evaluated the efflux of pre-loaded L-[^14C]leucine from LAT1 and pre-loaded L-[^14C]alanine from LAT2 induced by extracellularly applied compounds.
Efflux experiments were performed as described previously. Cells cultured 48 h were pre-loaded with 5 μM L-[^14C]leucine or L-[^14C]alanine for 10 min at 37 °C. The cells were then washed, and the efflux was induced by incubating cells for 1 min in either the absence or presence of non-radiolabeled test compounds at indicated concentrations. The efflux time of 1 min fell within the linear range of time-dependent substrate efflux mediated by LAT1 and LAT2 (Supplementary Fig. S2). Following incubation, the medium was collected and radioactivity was measured in both the medium and the cells. Efflux was quantified as the percentage of radioactivity released into the medium, calculated using the formula: radioactivity of medium/(radioactivity of medium + radioactivity of cells) × 100%.
The kinetic parameters for the efflux of L-[^14C]leucine or L-[^14C]alanine induced by various concentrations of extracellularly-applied test compounds were analyzed. The baseline efflux values—those obtained in the absence of test compounds—were subtracted from the values measured in the presence of the compounds. The resultant data were fitted to Michaelis–Menten kinetics to determine the Km and Vmax by nonlinear regression analysis using “enzyme kinetics-velocity as a function of substrate” module within GraphPad Prism software.

[1] = Tissue accumulation (plasma, tumor, small intestine) in B16-F10 tumor-bearing mice, HPLC; format: in vivo
Procedure: Female C57BL/6J mice were subcutaneously injected with 2 × 10^6 B16-F10 cells. The cells were prepared in a mixture containing a 1:1 volume ratio of phosphate-buffered saline (PBS) and Matrigel (Corning, New York, USA), with the total injection volume being 200 μL, administered into the dorsal flank. Tumor growth was measured bi-daily using calipers until tumors reached a size of approximately 300 ~ 500 mm^3, at which point they were deemed palpable. […] Blood samples were collected at 30 and 60 min post-administration. Then both the tumors and small intestines were excised and weighed for subsequent analysis by HPLC.
(§1) HPLC analyses were conducted as previously described. In brief, tumors and small intestines were homogenized in ice-cold PBS (3 times the tissue weight, v/w). The homogenates were then centrifuged at 15,000 ×g for 40 min at 4 °C. A 10 μL aliquot of the tissue supernatant or plasma was mixed with 190 μL of acetonitrile (MeCN) to precipitate proteins. This mixture was subsequently centrifuged at 15,000 ×g for 30 min at 4 °C. The resulting supernatant (100 μL) was dried, and the residue was reconstituted in 20 μL of 400 mM sodium borate (pH 8.0). Finally, 5 μL of 40 mM 4-fluoro-7-nitro-2,1,3-benzoxadiazole (NBD-F) in MeCN was added for fluorescence derivatization. HPLC analysis was carried out using a NANOSPACE SI-2 HPLC system (Shiseido, Tokyo, Japan) equipped with a fluorescence detector. […] The mobile phase consisted of MeCN, water, and trifluoroacetic acid (TFA) in a 27.5:72.5:0.05 (v/v/v) ratio, delivered at a flow rate of 200 μL/min.

LAT1 = system: LAT1; parameters: method as in PMID 1559223; conditions: in situ brain perfusion; cited from earlier work
[2] = Plasma concentration-time profile in normal mice after intravenous administration; format: in vivo; conditions: C57BL/6J mice, i.v., 15, 30, 60, 120 min; 2-F-Tyr 15.6 mg/kg, bicyclic-Phe 15 mg/kg
Procedure: The blood samples were collected at 15, 30, 60, and 120 min post-administration into lithium heparin-coated tubes (BD, New Jersey, USA) and then centrifuged at 1,500 ×g for 10 min at 23 °C. The resulting plasma was stored at −80 °C pending analysis by HPLC.
as §1

Vmax of efflux (% radioactivity/min) (human LAT2; LAT2, L-[14C]alanine efflux, mean ± S.E.M., n = 3): 10.05 ± 0.27 % radioactivity/min | LAT2-mediated L-[14C]alanine efflux induced (in words) (human LAT2; compounds at 10, 30, 100 μM): not efficiently transported by LAT2 | Concentration in small intestine compared with plasma ([1]; i.v., normalized to tissue weight / plasma volume): lower than in plasma | Concentration in tumor compared with plasma ([1]; i.v., normalized to tissue weight / plasma volume, 2-F-Tyr at 60 min): higher than in plasma
SMILES: N[C@]1(C(=O)O)CCc2ccccc2C1 [bicyclic-Phe, (R)-2-amino-1,2,3,4-tetrahydro-2-naphthoic acid]
Small intestine-to-plasma ratio (I/P) (in words) ([1]; 30 and 60 min after i.v., equimolar doses): significantly lower than that for 2-F-Tyr | Vmax of BBB transport relative to melphalan (LAT1): approximately seven times higher | Plasma concentration (in words) [2]: consistently showing higher levels than 2-F-Tyr
